ChEMBL document CHEMBL4038285, “Synthesis, molecular docking, antimycobacterial and antimicrobial evaluation of new pyrrolo[3,2-c]pyridine Mannich bases” (Eur J Med Chem, 2017)
In brackets after ≈: the same amount, converted by molar mass. Activity calls are given as the source filed them. The calls are words filed in the database; no cut-off is given here.

Columns and labels:
[1] = Growth inhibition of human HEK293T cells at 50 ug/ml after 72 hrs by MTT assay relative to control; type: cell-based, HEK-293T; details: read-out: GI
Streptococcus mutans [2] = assay: Antibacterial activity against Streptococcus mutans MTCC 890 after 24 hrs by broth microdilution method; type: functional; details: MTCC 890, 24 h
Klebsiella pneumoniae = assay: Antibacterial activity against Klebsiella pneumoniae PTCC 1053 assessed as diameter of inhibition zone measured after 20 hrs by agar well diffusion method; type: functional
Staphylococcus aureus [3] = assay: Antibacterial activity against Staphylococcus aureus NCIM 5345 assessed as diameter of inhibition zone measured after 20 hrs by agar well diffusion method; type: functional
Scopulariopsis sp = assay: Antifungal activity against Scopulariopsis sp. MTCC 3553 assessed as diameter of inhibition zone after 4 days by agar well diffusion method; type: functional
Staphylococcus aureus [4] = assay: Antibacterial activity against Staphylococcus aureus NCIM 5345 after 24 hrs by broth microdilution method; type: functional; details: NCIM 5345, 24 h
Pseudomonas aeruginosa = assay: Antibacterial activity against Pseudomonas aeruginosa MTCC 4727 assessed as diameter of inhibition zone measured after 20 hrs by agar well diffusion method; type: functional
HEK-293T = assay: Growth inhibition of human HEK293T cells after 72 hrs by MTT assay; type: cell-based
[5] = test system: Mycobacterium tuberculosis; assay: Antimycobacterial activity against Mycobacterium tuberculosis H37Rv ATCC 27294 after 7 days by microplate alamar blue assay; type: functional; details: H37Rv ATCC 27294, 168 h
Bacillus flexus [6] = assay: Antibacterial activity against Bacillus flexus MTCC 2909 assessed as diameter of inhibition zone measured after 20 hrs by agar well diffusion method; type: functional, Priestia flexa
Escherichia coli = assay: Antibacterial activity against Escherichia coli NCIM 2931 assessed as diameter of inhibition zone measured after 20 hrs by agar well diffusion method; type: functional
Bacillus flexus [7] = assay: Antibacterial activity against Bacillus flexus MTCC 2909 after 24 hrs by broth microdilution method; type: functional; details: Priestia flexa, MTCC 2909, 24 h
Streptococcus mutans [8] = assay: Antibacterial activity against Streptococcus mutans MTCC 890 assessed as diameter of inhibition zone measured after 20 hrs by agar well diffusion method; type: functional
Pseudomonas sp. = assay: Antibacterial activity against Pseudomonas sp. NCIM 2872 assessed as diameter of inhibition zone measured after 20 hrs by agar well diffusion method; type: functional
Aspergillus terreus = assay: Antifungal activity against Aspergillus terreus MTCC 1782 assessed as diameter of inhibition zone after 4 days by agar well diffusion method; type: functional
[9] = Selectivity index, ratio of IC50 for human HEK293T cells to MIC for Mycobacterium tuberculosis H37Rv ATCC 27294; type: toxicity; details: read-out: Selectivity Index
Clostridium sporogenes [10] = assay: Antibacterial activity against Clostridium sporogenes NICM 2559 after 24 hrs by broth microdilution method; type: functional; details: NICM 2559, 24 h
Clostridium sporogenes [11] = assay: Antibacterial activity against Clostridium sporogenes NICM 2559 assessed as diameter of inhibition zone measured after 20 hrs by agar well diffusion method; type: functional

Molecule | MIC (Streptococcus mutans [2]) | diameter of the inhibition zone (DIZ) (Klebsiella pneumoniae) | diameter of the inhibition zone (DIZ) (Staphylococcus aureus [3]) | diameter of the inhibition zone (DIZ) (Scopulariopsis sp) | MIC (Staphylococcus aureus [4]) | diameter of the inhibition zone (DIZ) (Pseudomonas aeruginosa) | MIC [5] | diameter of the inhibition zone (DIZ) (Bacillus flexus [6]) | diameter of the inhibition zone (DIZ) (Escherichia coli) | MIC (Bacillus flexus [7]) | diameter of the inhibition zone (DIZ) (Streptococcus mutans [8]) | diameter of the inhibition zone (DIZ) (Pseudomonas sp.) | diameter of the inhibition zone (DIZ) (Aspergillus terreus) | MIC (Clostridium sporogenes [10]) | diameter of the inhibition zone (DIZ) (Clostridium sporogenes [11]) | also measured
Clc1nccc2[nH]c(CC3CCCCC3)c(CN3CCOCC3)c12 | 30 µg/mL (≈ 86.2 µM) | inactive | 20 mm | inactive | 35 µg/mL (≈ 101 µM) | inactive | 25 µg/mL (≈ 71.9 µM) | 20 mm | inactive | 40 µg/mL (≈ 115 µM) | 20 mm | inactive | inactive | 40 µg/mL (≈ 115 µM) | 20 mm | inhibition at 72 h, 50 ug/ml [1]: 21.2%; IC50 (HEK-293T): > 50 µg/mL; selectivity ratio [9]: 1 to 2
CO[C@H]1/C=C/O[C@@]2(C)Oc3c(C)c(O)c4c(O)c(c(/C=N/N5CCN(C)CC5)c(O)c4c3C2=O)NC(=O)/C(C)=C\C=C\[C@H](C)[C@H](O)[C@@H](C)[C@@H](O)[C@@H](C)[C@H](OC(C)=O)[C@@H]1C [RIFAMPIN] |  |  |  |  |  |  | 0.02 µg/mL (≈ 0.0243 µM) |  |  |  |  |  |  |  |  | 
CC[C@@H](CO)NCCN[C@@H](CC)CO [ETHAMBUTOL] |  |  |  |  |  |  | 3.12 µg/mL (≈ 15.3 µM) |  |  |  |  |  |  |  |  | 
OCCN1CCN(Cc2c(-c3ccccc3)[nH]c3ccnc(Cl)c23)CC1 | > 50 µg/mL | inactive | 10 mm | inactive | > 50 µg/mL | inactive | > 25 µg/mL | 10 mm | inactive | > 50 µg/mL | 10 mm | inactive | inactive | > 50 µg/mL | 10 mm | 
Clc1nccc2[nH]c(-c3ccccc3)c(CN3CCOCC3)c12 | > 50 µg/mL | inactive | 10 mm | inactive | > 50 µg/mL | inactive | > 25 µg/mL | 10 mm | inactive | > 50 µg/mL | 10 mm | inactive | inactive | > 50 µg/mL | 10 mm | 
NYSTATIN |  | inactive | inactive |  |  | inactive |  |  | inactive |  | inactive | inactive |  |  | inactive | inhibition zone (IZ) (Scopulariopsis sp): 32 mm; diameter of the inhibition zone (DIZ) (Bacillus flexus [6]; Priestia flexa): inactive; inhibition zone (IZ) (Aspergillus terreus): 32 mm
CN[C@@H]1[C@H](O[C@H]2[C@H](O[C@H]3[C@H](O)[C@@H](O)[C@H](N=C(N)N)[C@@H](O)[C@@H]3N=C(N)N)O[C@@H](C)[C@]2(O)C=O)O[C@@H](CO)[C@H](O)[C@H]1O [STREPTOMYCIN] | 0.5 µg/mL (≈ 0.86 µM) | 32 mm | 32 mm | inactive | 2 µg/mL (≈ 3.44 µM) | 32 mm |  | 32 mm | 32 mm | 1.5 µg/mL (≈ 2.58 µM) | 32 mm | 32 mm | inactive | 1 µg/mL (≈ 1.72 µM) | 32 mm | 
CN(CCc1ccccc1)Cc1c(CC2CCCCC2)[nH]c2ccnc(Cl)c12 | 10 µg/mL (≈ 25.3 µM) | inactive | 32 mm | inactive | 10 µg/mL (≈ 25.3 µM) | inactive | 6.25 µg/mL (≈ 15.8 µM) | 32 mm | inactive | 8 µg/mL (≈ 20.2 µM) | 32 mm | inactive | inactive | 9 µg/mL (≈ 22.7 µM) | 32 mm | inhibition at 72 h, 50 ug/ml [1]: 19.1%; IC50 (HEK-293T): > 50 µg/mL; selectivity ratio [9]: > 16
NNC(=O)c1ccncc1 [ISONIAZID] |  |  |  |  |  |  | 0.36 µg/mL (≈ 2.63 µM) |  |  |  |  |  |  |  |  | 
